Data as given in PubChem BioAssay AID248 (DTP/NCI, 2004).
Inconclusive results and toxic doses are left out. Cut-off read from the data, not from the text of the source: active = T/C of 150% or more; inactive = T/C below 125%.

System: L1210 leukemia ip in BDF1 mice, survival T/C
Assay: NCI In Vivo Anticancer Drug Screen. Data for tumor model L1210 Leukemia (intraperitoneal) in B6D2F1 (BDF1) mice
Settings: endpoint: mean survival time, higher = longer survival
In short: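 Mice bearing the transplanted tumor received compound or vehicle. Survival of the treated group was divided by that of the vehicle-treated control group to give the ratio.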

[1] = dose: 100.0 mg/kg/injection, schedule: Q01DX009 (ip), vehicle: Klucel (hydroxypropylcellulose) (HPC)
[2] = dose: 100.0 mg/kg/injection, schedule: Q04DX003 (ip), vehicle: Klucel (hydroxypropylcellulose) (HPC)
[3] = dose: 200.0 mg/kg/injection, schedule: Q01DX009 (ip), vehicle: Klucel (hydroxypropylcellulose) (HPC)
[4] = dose: 200.0 mg/kg/injection, schedule: Q04DX003 (ip), vehicle: Klucel (hydroxypropylcellulose) (HPC)
[5] = dose: 400.0 mg/kg/injection, schedule: Q04DX003 (ip), vehicle: Klucel (hydroxypropylcellulose) (HPC)
[6] = dose: 50.0 mg/kg/injection, schedule: Q01DX001 (ip), vehicle: saline
[7] = dose: 100.0 mg/kg/injection, schedule: Q01DX001 (ip), vehicle: saline
[8] = dose: 200.0 mg/kg/injection, schedule: Q01DX001 (ip), vehicle: saline
[9] = dose: 50.0 mg/kg/injection, schedule: Q01DX009 (ip), vehicle: Klucel (hydroxypropylcellulose) (HPC)
[10] = dose: 100.0 mg/kg/injection, schedule: Q04DX003 (ip), vehicle: saline
[11] = dose: 200.0 mg/kg/injection, schedule: Q04DX003 (ip), vehicle: saline
[12] = dose: 100.0 mg/kg/injection, schedule: Q04DX003 (ip), vehicle: saline with Tween-80
[13] = dose: 200.0 mg/kg/injection, schedule: Q04DX003 (ip), vehicle: saline with Tween-80
[14] = dose: 400.0 mg/kg/injection, schedule: Q04DX003 (ip), vehicle: saline with Tween-80
[15] = dose: 100.0 mg/kg/injection, schedule: Q01DX009 (ip), vehicle: saline with Tween-80
[16] = dose: 200.0 mg/kg/injection, schedule: Q01DX009 (ip), vehicle: saline with Tween-80
[17] = dose: 400.0 mg/kg/injection, schedule: Q01DX009 (ip), vehicle: saline with Tween-80
[18] = dose: 100.0 mg/kg/injection, schedule: Q01DX001 (ip), vehicle: saline with Tween-80
[19] = dose: 200.0 mg/kg/injection, schedule: Q01DX001 (ip), vehicle: saline with Tween-80
[20] = dose: 400.0 mg/kg/injection, schedule: Q01DX001 (ip), vehicle: saline with Tween-80
[21] = dose: 400.0 mg/kg/injection, schedule: Q04DX003 (ip), vehicle: saline
[22] = dose: 75.0 mg/kg/injection, schedule: Q01DX001 (ip), vehicle: acetone
[23] = dose: 150.0 mg/kg/injection, schedule: Q01DX001 (ip), vehicle: acetone

Measured: T/C

COc1cc2c(cc1OC)N(S(=O)(=O)c1ccc(C)cc1)CCCC2=O
inactive: [1] 96 % of control | [2] 96 % of control | [3] 91 % of control | [4] 93 % of control | dose: 400.0 mg/kg/injection, schedule: Q01DX009 (ip), vehicle: Klucel (hydroxypropylcellulose) (HPC) 93 % of control | [5] 102 % of control

COc1ccc(NCCC(O)CN2CCOCC2)cc1 (centres undefined)
inactive: [6] 100 % of control | [7] 94 % of control | [8] 119 % of control

Cn1c(O)c(O)c(=O)n(C)c1=O
inactive: [9] 101 % of control | [1] 98 % of control | [3] 88 % of control

ONC(=Nc1ccccc1)c1ccccc1
inactive: [10] 104 % of control | [11] 101 % of control

Cc1cccc(C)c1C(Cl)CS(=O)(=O)c1ccccc1 (centres undefined)
inactive: [2] 102 % of control | [4] 107 % of control | [5] 107 % of control

CCCC(NC(=O)C(C)NC(=O)OCc1ccccc1)C(=O)OC (centres undefined)
inactive: [12] 93 % of control | [13] 93 % of control | [14] 86 % of control

O=C(Nc1ccccc1[N+](=O)[O-])c1ccccc1
inactive: [15] 111 % of control | [16] 106 % of control | [17] 106 % of control

COc1cc(NC(C)CCCN)c2nc(OCc3ccccc3)ccc2c1 (centres undefined)
inactive: dose: 6.25 mg/kg/injection, schedule: Q01DX009 (ip), vehicle: saline with Tween-80 96 % of control | dose: 6.25 mg/kg/injection, schedule: Q04DX003 (ip), vehicle: saline with Tween-80 96 % of control | dose: 12.5 mg/kg/injection, schedule: Q01DX009 (ip), vehicle: saline with Tween-80 98 % of control | dose: 12.5 mg/kg/injection, schedule: Q04DX003 (ip), vehicle: saline with Tween-80 93 % of control | dose: 25.0 mg/kg/injection, schedule: Q01DX009 (ip), vehicle: saline with Tween-80 97 % of control | dose: 25.0 mg/kg/injection, schedule: Q04DX003 (ip), vehicle: saline with Tween-80 99 % of control

CCOC(=O)C(c1ccsc1)C(C(=O)OCC)c1cccs1 (centres undefined)
inactive: [18] 92 % of control | [19] 98 % of control | [20] 92 % of control

COc1ccc(/C=C/C(=O)c2ccc(OC)c(OC)c2)cc1O
inactive: dose: 100.0 mg/kg/injection, schedule: Q01DX009 (ip), vehicle: saline 96 % of control | [10] 95 % of control | dose: 200.0 mg/kg/injection, schedule: Q01DX009 (ip), vehicle: saline 120 % of control | [11] 98 % of control | dose: 400.0 mg/kg/injection, schedule: Q01DX009 (ip), vehicle: saline 91 % of control | [21] 95 % of control

NC1CCCCCCCC1
inactive: [22] 95 % of control | [23] 98 % of control

O=C(CSc1ccc([N+](=O)[O-])cn1)c1ccc(Br)cc1
inactive: [10] 102 % of control | [11] 98 % of control | [21] 102 % of control

OC1CCCCC1C1CCCCC1 (centres undefined)
inactive: dose: 50.0 mg/kg/injection, schedule: Q01DX009 (ip), vehicle: saline with Tween-80 94 % of control | [15] 94 % of control | dose: 100.0 mg/kg/injection, schedule: Q04DX002 (ip), vehicle: saline 121 % of control | dose: 300.0 mg/kg/injection, schedule: Q04DX002 (ip), vehicle: saline 107 % of control | dose: 400.0 mg/kg/injection, schedule: Q04DX002 (ip), vehicle: saline 100 % of control

CC[N+](CC)(CC)CCNC(c1ccccc1)C(Cl)(Cl)Cl (centres undefined)
inactive: dose: 12.5 mg/kg/injection, schedule: Q01DX001 (ip), vehicle: saline 97 % of control | dose: 25.0 mg/kg/injection, schedule: Q01DX001 (ip), vehicle: saline 87 % of control | [6] 95 % of control

CCCCOCN1CCCCC1
inactive: dose: 31.0 mg/kg/injection, schedule: Q01DX Z (ip), vehicle: carboxymethylcellulose (CMC) 95 % of control | dose: 62.5 mg/kg/injection, schedule: Q01DX Z (ip), vehicle: carboxymethylcellulose (CMC) 101 % of control | [12] 111 % of control | dose: 125.0 mg/kg/injection, schedule: Q01DX Z (ip), vehicle: carboxymethylcellulose (CMC) 105 % of control | [13] 102 % of control

NC1CCCCC1I (centres undefined)
inactive: [22] 94 % of control | [23] 104 % of control

CC1CN(c2ccncc2N)CCN1c1ccc(Cl)cc1 (centres undefined)
inactive: [12] 110 % of control | [13] 105 % of control | [14] 105 % of control

O=[N+]([O-])c1ccc(O)c(/C=N/Nc2nnc(N/N=C/c3cc([N+](=O)[O-])ccc3O)c3ccccc23)c1
inactive: dose: 50.0 mg/kg/injection, schedule: Q01DX001 (ip), vehicle: carboxymethylcellulose (CMC) 95 % of control | dose: 100.0 mg/kg/injection, schedule: Q01DX001 (ip), vehicle: carboxymethylcellulose (CMC) 93 % of control | dose: 200.0 mg/kg/injection, schedule: Q01DX001 (ip), vehicle: carboxymethylcellulose (CMC) 95 % of control | dose: 400.0 mg/kg/injection, schedule: Q01DX001 (ip), vehicle: carboxymethylcellulose (CMC) 93 % of control

N/C(=N\OC(=O)Nc1ccc(Cl)cc1)C(Cl)(Cl)Cl
inactive: [1] 94 % of control | [3] 90 % of control

O=C(Oc1cc(Cl)c(S(=O)(=O)F)cc1Cl)c1ccccc1Cl
inactive: dose: 100.0 mg/kg/injection, schedule: Q04DX003 (ip), vehicle: carboxymethylcellulose (CMC) 88 % of control | dose: 200.0 mg/kg/injection, schedule: Q04DX003 (ip), vehicle: carboxymethylcellulose (CMC) 90 % of control | dose: 400.0 mg/kg/injection, schedule: Q04DX003 (ip), vehicle: carboxymethylcellulose (CMC) 88 % of control

CC(C)(C)OC(=O)CC#N
inactive: dose: 75.0 mg/kg/injection, schedule: Q04DX003 (ip), vehicle: saline 97 % of control | [7] 97 % of control | dose: 150.0 mg/kg/injection, schedule: Q04DX003 (ip), vehicle: saline 94 % of control | [8] 101 % of control | dose: 300.0 mg/kg/injection, schedule: Q04DX003 (ip), vehicle: saline 100 % of control

CCCCCCCc1ccc2cccc3c2c1C(=O)c1ccccc1-3
inactive: [2] 92 % of control | [4] 92 % of control | [5] 94 % of control

CNS(=O)(=O)c1ccc(C(N)=S)cc1
inactive: dose: 100.0 mg/kg/injection, schedule: Q01DX001 (ip), vehicle: gum acacia 93 % of control | dose: 200.0 mg/kg/injection, schedule: Q01DX001 (ip), vehicle: gum acacia 106 % of control | dose: 400.0 mg/kg/injection, schedule: Q01DX001 (ip), vehicle: gum acacia 98 % of control

O=C1CCCCC1C(O)(C(=O)c1ccccc1)c1ccccc1 (centres undefined)
inactive: dose: 100.0 mg/kg/injection, schedule: Q04DX002 (ip), vehicle: Klucel (hydroxypropylcellulose) (HPC) 100 % of control | dose: 200.0 mg/kg/injection, schedule: Q04DX002 (ip), vehicle: Klucel (hydroxypropylcellulose) (HPC) 96 % of control | dose: 400.0 mg/kg/injection, schedule: Q04DX002 (ip), vehicle: Klucel (hydroxypropylcellulose) (HPC) 100 % of control

Cc1nc2ccc(Cl)c(Cl)c2s1
inactive: [18] 106 % of control | [19] 104 % of control | [20] 100 % of control

C[Si](C)(O[Si](C)(C)C1C=CC=C1)C1C=CC=C1
inactive: dose: 12.5 mg/kg/injection, schedule: Q01DX001 (ip), vehicle: Klucel (hydroxypropylcellulose) (HPC) 91 % of control | dose: 25.0 mg/kg/injection, schedule: Q01DX001 (ip), vehicle: Klucel (hydroxypropylcellulose) (HPC) 91 % of control | dose: 50.0 mg/kg/injection, schedule: Q01DX001 (ip), vehicle: Klucel (hydroxypropylcellulose) (HPC) 88 % of control

N#CC(C(N)=O)C1CC(=O)Oc2ccccc21 (centres undefined)
inactive: [9] 100 % of control | [1] 105 % of control | [3] 100 % of control

O=[N+]([O-])c1cccc(-c2ccccc2)c1Br
inactive: [15] 94 % of control | [2] 93 % of control | [16] 93 % of control | [4] 96 % of control | [17] 94 % of control | [5] 94 % of control
